# ± gives the expanded uncertainty stated by the source.
# Columns and labels:
# [1] = Crystal; DSC
# [2] = Molar enthalpy of transition or fusion; conditions: Crystal; DSC
compound,measurement,setting,value
O=P(O)(O)c1ccccc1 [phenylphosphonic acid],Triple point temperature,[1],437.53 ± 0.93 K
same,Molar enthalpy of transition or fusion,[2],5.72 ± 0.502 kcal/mol

# Source: the NIST ThermoML archive (doi:10.1021/acs.jced.9b00362)
